# Experiments:
# Experiment in all cases: In vitro antibacterial evaluation: minimum inhibitory concentration (MIC), broth dilution method
# Format in all cases: cell-based
# Enterococcus sp. = system: Enterococcus sp.
# How it was run: (§1)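 First, organisms are seeded at 5×10^5 CFU/mL into Muller-Hinton II […]. Next, antibiotic is applied across 64-0.06 μg/mL by broth dilution (NCCLS M7-A2). Finally, the lowest inhibitory concentration is recorded as MIC.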
# Escherichia coli = system: Escherichia coli
# How it was run: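 NCCLS M7-A2 broth dilution; Muller-Hinton II […]; 5×10^5 CFU/mL; 64-0.06 μg/mL. MIC = lowest concentration with no growth.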
# Staphylococcus sp. = settings: 18 hours at 35° C.
# How it was run: as §1
# Streptococcus sp. = system: Streptococcus sp.
# How it was run: as §1
# [1] = broth dilution, inoculum 5×10^5 CFU/mL, 18 hours at 35° C.
smiles,measurement,setting,value
"CC(c1ccccc1)C1NC(=O)CNC(=O)C(CO)NC(=O)C(C(O)C2CNC(=N)N2C2OC(CO)C(O)C(O)C2O)NC(=O)C(C(O)C2CNC(=N)N2)NC(=O)C(Cc2ccc(OC3OC(CO)C(OC4OC5COC(c6ccc(C(=O)c7ccccc7)cc6)OC5C(O)C4O)C(O)C3O)cc2)NC1=O (stereo not drawn) [Example 173, Cyclo[glycyl-β-methylphenylalanyl-O-[4-O-[4,6-O-[4-benzoylbenzylidene)hexopyranosyl]-hexopyranosyl]tyrosyl-3-(2-iminoimidazolidin-4-yl)seryl-3-(3-hexopyranosyl-2-iminoimidazolidin-4-yl)serylseryl]]",MIC Enterococcus avium (GC 4558),Enterococcus sp.; [1],1 µg/mL
same,MIC Enterococcus faecalis (ATCC 29212),Enterococcus sp.; [1],1 µg/mL
same,MIC Enterococcus faecalis (GC 2242),Enterococcus sp.; [1],2 µg/mL
same,MIC Enterococcus faecalis (GC 2691),Enterococcus sp.; [1],2 µg/mL
same,MIC Enterococcus faecalis (GC 3059),Enterococcus sp.; [1],2 µg/mL
same,MIC Enterococcus faecalis (GC 4552),Enterococcus sp.; [1],2 µg/mL
same,MIC Enterococcus faecalis (GC 4553),Enterococcus sp.; [1],2 µg/mL
same,MIC Enterococcus faecalis (GC 4554),Enterococcus sp.; [1],2 µg/mL
same,MIC Enterococcus faecalis (GC 6189),Enterococcus sp.; [1],1 µg/mL
same,MIC Enterococcus faecium (GC 2243),Enterococcus sp.; [1],2 µg/mL
same,MIC Enterococcus faecium (GC 4556),Enterococcus sp.; [1],1 µg/mL
same,MIC Enterococcus faecium (GC 4557),Enterococcus sp.; [1],2 µg/mL
same,MIC Enterococcus faecalis (ATCC 29212),Enterococcus sp.; strain ATCC 29212,1 µg/mL
same,MIC Enterococcus faecalis (GC 2242),Enterococcus sp.; strain GC 2242,2 µg/mL
same,MIC Enterococcus faecium (GC 2243),Enterococcus sp.; strain GC 2243,2 µg/mL
same,MIC Enterococcus faecalis (GC 2691),Enterococcus sp.; strain GC 2691,2 µg/mL
same,MIC Enterococcus faecalis (GC 3059),Enterococcus sp.; strain GC 3059,2 µg/mL
same,MIC Enterococcus faecalis (GC 4552),Enterococcus sp.; strain GC 4552,2 µg/mL
same,MIC Enterococcus faecalis (GC 4553),Enterococcus sp.; strain GC 4553,2 µg/mL
same,MIC Enterococcus faecalis (GC 4554),Enterococcus sp.; strain GC 4554,2 µg/mL
same,MIC Enterococcus faecium (GC 4556),Enterococcus sp.; strain GC 4556,1 µg/mL
same,MIC Enterococcus faecium (GC 4557),Enterococcus sp.; strain GC 4557,2 µg/mL
same,MIC Enterococcus avium (GC 4558),Enterococcus sp.; strain GC 4558,1 µg/mL
same,MIC Enterococcus faecalis (GC 6189),Enterococcus sp.; strain GC 6189,1 µg/mL
same,MIC Escherichia coli (ATCC 25922),Escherichia coli; strain ATCC 25922,32 µg/mL
same,MIC Escherichia coli (GC 4559),Escherichia coli; strain GC 4559,16 µg/mL
same,MIC Escherichi coli (GC 4560),Escherichia coli; strain GC 4560,0.5 µg/mL
same,MIC Coagulase Negative Staphylococcus (GC 4547),"Staphylococcus sp.; broth dilution, 5×10^5 CFU/mL",2 µg/mL
same,MIC Coagulase Negative Staphylococcus (GC 4548),"Staphylococcus sp.; broth dilution, 5×10^5 CFU/mL",0.5 µg/mL
same,MIC Coagulase Negative Staphylococcus (GC 4549),"Staphylococcus sp.; broth dilution, 5×10^5 CFU/mL",0.25 µg/mL
same,MIC Coagulase Negative Staphylococcus (GC 4551),"Staphylococcus sp.; broth dilution, 5×10^5 CFU/mL",0.5 µg/mL
same,MIC Coagulase Negative Staphylococcus (GC 6257),"Staphylococcus sp.; broth dilution, 5×10^5 CFU/mL",0.5 µg/mL
same,MIC Staphylococcus aureus (ATCC 29213),"Staphylococcus sp.; broth dilution, 5×10^5 CFU/mL",1 µg/mL
same,MIC Staphylococcus aureus (GC 1131),"Staphylococcus sp.; broth dilution, 5×10^5 CFU/mL",2 µg/mL
same,MIC Staphylococcus aureus (GC 3051),"Staphylococcus sp.; broth dilution, 5×10^5 CFU/mL",0.5 µg/mL
same,MIC Staphylococcus aureus (GC 3053),"Staphylococcus sp.; broth dilution, 5×10^5 CFU/mL",1 µg/mL
same,MIC Staphylococcus aureus (GC 4541),"Staphylococcus sp.; broth dilution, 5×10^5 CFU/mL",0.5 µg/mL
same,MIC Staphylococcus aureus (GC 4542),"Staphylococcus sp.; broth dilution, 5×10^5 CFU/mL",0.5 µg/mL
same,MIC Staphylococcus aureus (GC 4544),"Staphylococcus sp.; broth dilution, 5×10^5 CFU/mL",2 µg/mL
same,MIC Staphylococcus aureus (GC 4545),"Staphylococcus sp.; broth dilution, 5×10^5 CFU/mL",2 µg/mL
same,MIC Staphylococcus aureus-SMITH (GC 4543),"Staphylococcus sp.; broth dilution, 5×10^5 CFU/mL",0.5 µg/mL
same,MIC Staphylococcus haemolyticus (GC 4546),"Staphylococcus sp.; broth dilution, 5×10^5 CFU/mL",1 µg/mL
same,MIC Staphylococcus aureus (ATCC 29213),"Staphylococcus sp.; strain ATCC 29213, broth dilution",1 µg/mL
same,MIC Staphylococcus aureus (GC 1131),"Staphylococcus sp.; strain GC 1131, broth dilution",2 µg/mL
same,MIC Staphylococcus aureus (GC 3051),"Staphylococcus sp.; strain GC 3051, broth dilution",0.5 µg/mL
same,MIC Staphylococcus aureus (GC 3053),"Staphylococcus sp.; strain GC 3053, broth dilution",1 µg/mL
same,MIC Staphylococcus aureus (GC 4541),"Staphylococcus sp.; strain GC 4541, broth dilution",0.5 µg/mL
same,MIC Staphylococcus aureus (GC 4542),"Staphylococcus sp.; strain GC 4542, broth dilution",0.5 µg/mL
same,MIC Staphylococcus aureus (GC 4544),"Staphylococcus sp.; strain GC 4544, broth dilution",2 µg/mL
same,MIC Staphylococcus aureus (GC 4545),"Staphylococcus sp.; strain GC 4545, broth dilution",2 µg/mL
same,MIC Streptococcus agalactiae (GC 4564),Streptococcus sp.; [1],<0.12 µg/mL
same,MIC Streptococcus pneumoniae (ATCC 6301),Streptococcus sp.; [1],<0.12 µg/mL
same,MIC Streptococcus pneumoniae (GC 1894),Streptococcus sp.; [1],<0.12 µg/mL
same,MIC Streptococcus pneumoniae (GC 4565),Streptococcus sp.; [1],<0.12 µg/mL
same,MIC Streptococcus pyogenes (GC 4563),Streptococcus sp.; [1],<0.12 µg/mL
same,MIC Streptococcus pneumoniae (ATCC 6301),Streptococcus sp.; strain ATCC 6301,<0.12 µg/mL
same,MIC Streptococcus pneumoniae (GC 1894),Streptococcus sp.; strain GC 1894,<0.12 µg/mL
same,MIC Streptococcus pyogenes (GC 4563),Streptococcus sp.; strain GC 4563,<0.12 µg/mL
same,MIC Streptococcus agalactiae (GC 4564),Streptococcus sp.; strain GC 4564,<0.12 µg/mL
same,MIC Streptococcus pneumoniae (GC 4565),Streptococcus sp.; strain GC 4565,<0.12 µg/mL
Cc1ccc(COCC2OC(OC3C(CO)OC(Oc4ccc(CC5NC(=O)C(C(C)c6ccccc6)NC(=O)CNC(=O)C(CO)NC(=O)C(C(O)C6CNC(=N)N6C6OC(CO)C(O)C(O)C6O)NC(=O)C(C(O)C6CNC(=N)N6)NC5=O)cc4)C(O)C3O)C(O)C(O)C2O)cc1 (stereo not shown) [Example 234],MIC Enterococcus avium (GC 4558),"Enterococcus sp.; Enterococcus avium (GC 4558), 18 hours at 35° C.",8 µg/mL
same,MIC Enterococcus faecalis (ATCC 29212),"Enterococcus sp.; Enterococcus faecalis (ATCC 29212), 18 hours at 35° C.",8 µg/mL
same,MIC Enterococcus faecalis (GC 2242),"Enterococcus sp.; Enterococcus faecalis (GC 2242), 18 hours at 35° C.",4 µg/mL
same,MIC Enterococcus faecalis (GC 2691),"Enterococcus sp.; Enterococcus faecalis (GC 2691), 18 hours at 35° C.",8 µg/mL
same,MIC Enterococcus faecalis (GC 3059),"Enterococcus sp.; Enterococcus faecalis (GC 3059), 18 hours at 35° C.",8 µg/mL
same,MIC Enterococcus faecalis (GC 4552),"Enterococcus sp.; Enterococcus faecalis (GC 4552), 18 hours at 35° C.",8 µg/mL
same,MIC Enterococcus faecalis (GC 4553),"Enterococcus sp.; Enterococcus faecalis (GC 4553), 18 hours at 35° C.",8 µg/mL
same,MIC Enterococcus faecalis (GC 4554),"Enterococcus sp.; Enterococcus faecalis (GC 4554), 18 hours at 35° C.",8 µg/mL
same,MIC Enterococcus faecalis (GC 6189),"Enterococcus sp.; Enterococcus faecalis (GC 6189), 18 hours at 35° C.",8 µg/mL
same,MIC Enterococcus faecium (GC 2243),"Enterococcus sp.; Enterococcus faecium (GC 2243), 18 hours at 35° C.",8 µg/mL
same,MIC Enterococcus faecium (GC 4556),"Enterococcus sp.; Enterococcus faecium (GC 4556), 18 hours at 35° C.",8 µg/mL
same,MIC Enterococcus faecium (GC 4557),"Enterococcus sp.; Enterococcus faecium (GC 4557), 18 hours at 35° C.",2 µg/mL
same,MIC Enterococcus faecalis (GC 2242),Enterococcus sp.; [1],4 µg/mL
same,MIC Enterococcus faecalis (GC 2691),Enterococcus sp.; [1],8 µg/mL
same,MIC Enterococcus faecalis (GC 3059),Enterococcus sp.; [1],8 µg/mL
same,MIC Escherichia coli (ATCC 25922),"Escherichia coli; Escherichia coli (ATCC 25922), 18 hours at 35° C.",64 µg/mL
same,MIC Escherichia coli (GC 4559),"Escherichia coli; Escherichia coli (GC 4559), 18 hours at 35° C.",64 µg/mL
same,MIC Escherichia coli (GC 4560),"Escherichia coli; Escherichia coli (GC 4560), 18 hours at 35° C.",1 µg/mL
same,MIC Coagulase Negative Staphylococcus (GC 4547),Staphylococcus sp.; Coagulase Negative Staphylococcus (GC 4547),1 µg/mL
same,MIC Coagulase Negative Staphylococcus (GC 4548),Staphylococcus sp.; Coagulase Negative Staphylococcus (GC 4548),1 µg/mL
same,MIC Coagulase Negative Staphylococcus (GC 4549),Staphylococcus sp.; Coagulase Negative Staphylococcus (GC 4549),0.5 µg/mL
same,MIC Coagulase Negative Staphylococcus (GC 4551),Staphylococcus sp.; Coagulase Negative Staphylococcus (GC 4551),2 µg/mL
same,MIC Coagulase Negative Staphylococcus (GC 6257),Staphylococcus sp.; Coagulase Negative Staphylococcus (GC 6257),1 µg/mL
same,MIC Staphylococcus aureus (ATCC 29213),Staphylococcus sp.; Staphylococcus aureus (ATCC 29213),2 µg/mL
same,MIC Staphylococcus aureus (GC 1131),Staphylococcus sp.; Staphylococcus aureus (GC 1131),2 µg/mL
same,MIC Staphylococcus aureus (GC 3051),Staphylococcus sp.; Staphylococcus aureus (GC 3051),2 µg/mL
same,MIC Staphylococcus aureus (GC 3053),Staphylococcus sp.; Staphylococcus aureus (GC 3053),2 µg/mL
same,MIC Staphylococcus aureus (GC 4541),Staphylococcus sp.; Staphylococcus aureus (GC 4541),2 µg/mL
same,MIC Staphylococcus aureus (GC 4542),Staphylococcus sp.; Staphylococcus aureus (GC 4542),2 µg/mL
same,MIC Staphylococcus aureus (GC 4544),Staphylococcus sp.; Staphylococcus aureus (GC 4544),2 µg/mL
same,MIC Staphylococcus aureus (GC 4545),Staphylococcus sp.; Staphylococcus aureus (GC 4545),2 µg/mL
same,MIC Staphylococcus aureus-SMITH (GC 4543),Staphylococcus sp.; Staphylococcus aureus-SMITH (GC 4543),2 µg/mL
same,MIC Staphylococcus haemolyticus (GC 4546),Staphylococcus sp.; Staphylococcus haemolyticus (GC 4546),1 µg/mL
same,MIC Streptococcus agalactiae (GC 4564),"Streptococcus sp.; Streptococcus agalactiae (GC 4564), 18 hours at 35° C.",0.5 µg/mL
same,MIC Streptococcus pneumoniae (ATCC 6301),"Streptococcus sp.; Streptococcus pneumoniae (ATCC 6301), 18 hours at 35° C.",0.25 µg/mL
same,MIC Streptococcus pneumoniae (GC 1894),"Streptococcus sp.; Streptococcus pneumoniae (GC 1894), 18 hours at 35° C.",0.12 µg/mL
same,MIC Streptococcus pneumoniae (GC 4565),"Streptococcus sp.; Streptococcus pneumoniae (GC 4565), 18 hours at 35° C.",0.25 µg/mL
same,MIC Streptococcus pyogenes (GC 4563),"Streptococcus sp.; Streptococcus pyogenes (GC 4563), 18 hours at 35° C.",0.5 µg/mL
same,MIC Streptococcus agalactiae (GC 4564),Streptococcus sp.; [1],0.5 µg/mL
same,MIC Streptococcus pneumoniae (ATCC 6301),Streptococcus sp.; [1],0.25 µg/mL
same,MIC Streptococcus pneumoniae (GC 1894),Streptococcus sp.; [1],0.12 µg/mL
same,MIC Streptococcus pneumoniae (GC 4565),Streptococcus sp.; [1],0.25 µg/mL
same,MIC Streptococcus pyogenes (GC 4563),Streptococcus sp.; [1],0.5 µg/mL

# — patent US8247211B2, “Glycopeptide antibiotics” (American Cyanamid Company, priority 2001, dated 2012)
